Results as given in patent US20130029983A1, “AMINOTHIENOPYRIDAZINE INHIBITORS OF TAU ASSEMBLY” (priority 2009, published 2013).

Key:
K18PL tau [1] = target: T1, K18PL tau (Homo sapiens, UniProt P10636, P618L); experiment: K18PL tau centrifugation (sedimentation) assay, SDS-PAGE densitometry; format: biochemical; conditions: Table 4; K18PL tau centrifugation assay
T1 construct: (K18PL; amino acids 244-369); made in house
Procedure: The determination of compound-induced effects on the amount of tau that remains soluble upon centrifugation, and EM visualization of tau species following incubation with test compounds, were as previously described (Crowe, A., Ballatore, C., Hyde, E., Trojanowski, J. Q., and Lee, V. M. Y. (2007) Biochemical and Biophysical Research Communications 358, 1-6).
(§1) The solubility of test compounds in the sodium acetate buffer used for subsequent fibrillization reactions was determined by turbidimetric measurements. Compounds were then evaluated in a heparin-induced tau assembly assay, in which the fibrillization of the truncated K18 tau fragment (comprised of four MT-binding repeats) bearing the P301L mutation (K18PL) found in FTDP-17, was monitored by thioflavine-T (ThT) binding and fluorescence (FIG. 3A). (Crowe, A.; et al., Identification of aminothienopyridazine inhibitors of tau assembly by quantitative high-throughput screening. Biochemistry 2009, 48, 7732-45.) The inhibitory activity of test compounds was then confirmed with an orthogonal sedimentation assay in which compound-treated fibrillizing mixtures were centrifuged and quantitation of K18PL tau in the soluble and insoluble fraction was performed by densitometric analyses of SDS-PAGE (FIG. 3B). […] Thus, the tau fibrillization assay was repeated in which both DMSO- and compound-treated mixtures were initially centrifuged for 30 min. prior to incubation (i.e., at time zero of the fibrillization reaction) to remove any pelletable material.

K18PL tau [2] = target: T1, K18PL tau; experiment: Heparin-induced K18PL tau fibrillization assay monitored by ThT fluorescence; format: biochemical; conditions: Table 4; for Tau ThT Assay % Inhib. / inhibition at 80 µM: highest tested concentration (80 μM); for inhibition at 80 µM: read-out: Tau ThT Assay % Inhib.; for IC50 / Tau ThT Assay Log IC50: logarithm of IC50, K18PL tau ThT fluorescence inhibition; for IC50: read-out: Tau ThT Assay Log IC50 (converted)
Procedure: Tau fibril formation reactions were performed essentially as described (Crowe, A., Ballatore, C., Hyde, E., Trojanowski, J. Q., and Lee, V. M. Y. (2007) Biochemical and Biophysical Research Communications 358, 1-6). K18PL (2 μl of a 30 μM stock that also contained 0.24 μM Alexa Red-labeled K18PL) was dispensed into black 1536-well plates (Grenier) using a solenoid-based dispenser. Following transfer of 23 nL of test compound or DMSO vehicle by a pin tool from compound library plates, 2 μl/well of 40 μM heparin in reagent buffer was dispensed and the plate was centrifuged for 15 s at 1000 rpm in a table-top centrifuge. The fibrillization reaction proceeded for 6 hours at 37° C. in a humidified incubator (Kalypsys).
K18PL fibril formation was quantified with a ThT assay as previously described (Crowe, A., Ballatore, C., Hyde, E., Trojanowski, J. Q., and Lee, V. M. Y. (2007) Biochemical and Biophysical Research Communications 358, 1-6). Briefly, 1 μl/well of 62.5 μM ThT (Sigma) in 100 mM glycine, pH 8.5 (12.5 μM final concentration) was dispensed into 1536-well plates after completion of the fibrillization reaction and incubated at room temperature for 1 hour. Plates were read on an Envision fluorescence plate reader with an excitation of 450 nm and an emission setting of 510 nm.
Compound effects on tau assembly were determined for the ThT and FP assays using the formula 1−(Fcompound− FDMSO)/( Fcontrol− FDMSO), where Fcontrol denotes the median plate fluorescence values (ThT assay) or mP values (FP assay) of the non-fibrillizing K18 KD control wells, FDMSO denotes the median value of the DMSO control wells, and Fcompound denotes the compound well values. The resulting values were multiplied by 100 to obtain the percent inhibition of tau fibril formation.
as §1

T1 sequence (P10636 561-686 P618L): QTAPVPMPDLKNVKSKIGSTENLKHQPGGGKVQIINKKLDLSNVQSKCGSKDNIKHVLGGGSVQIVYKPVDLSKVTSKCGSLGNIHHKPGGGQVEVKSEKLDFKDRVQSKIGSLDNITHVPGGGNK

For `CCOC(=O)c1nn(-c2ccc(C(C)C)cc2)c(=O)c2c(N)scc12` [CNDR-51347], the “Tau Cent. Assay % Soluble” value (K18PL tau [1]) was 17% and the “Tau ThT Assay % Inhib.” value (K18PL tau [2]) was 8%.
For `CCOC(=O)c1nn(-c2ccc([N+](=O)[O-])cc2)c(=O)c2c(N)scc12` [CNDR-51352, Ethyl 5-amino-3-(4-nitrophenyl)-4-oxo-3,4-dihydrothieno[3,4-d]pyridazine-1-carboxylate], the “Tau Cent. Assay % Soluble” value (K18PL tau [1]) was 59%, the inhibition at 80 µM (K18PL tau [2]) was 69% and the IC50 (K18PL tau [2]) was 50.1 µM.
For `CCOC(=O)c1nn(-c2ccc(N)cc2)c(=O)c2c(N)scc12` [CNDR-51355, Ethyl 5-amino-3-(4-aminophenyl)-4-oxo-3,4-dihydrothieno[3,4-d]pyridazine-1-carboxylate], the “Tau Cent. Assay % Soluble” value (K18PL tau [1]) was 67%, the inhibition at 80 µM (K18PL tau [2]) was 74% and the IC50 (K18PL tau [2]) was 1.26 µM.
With `CCOC(=O)c1nn(-c2ccc(Cl)cc2)c(=O)c2c(NC)scc12` [CNDR-51360, Ethyl 3-(4-chlorophenyl)-5-(methylamino)-4-oxo-3,4-dihydrothieno[3,4-d]pyridazine-1-carboxylate] the “Tau Cent. Assay % Soluble” value (K18PL tau [1]) was 51%, the inhibition at 80 µM (K18PL tau [2]) was 39% and the IC50 (K18PL tau [2]) was 5.01 µM.
In the case of `CCOC(=O)c1nn(-c2ccc(O)cc2)c(=O)c2c(N)scc12` [CNDR-51363, Ethyl 5-amino-3-(4-hydroxyphenyl)-4-oxo-3,4-dihydrothieno[3,4-d]pyridazine-1-carboxylate], the “Tau Cent. Assay % Soluble” value (K18PL tau [1]) is reported as 69%, the inhibition at 80 µM (K18PL tau [2]) is reported as 81% and the “Tau ThT Assay Log IC50” value (K18PL tau [2]) is reported as −5.3.
For `CCOC(=O)c1nn(-c2ccc(OC(F)(F)F)cc2)c(=O)c2c(N)scc12` [CNDR-51369, Ethyl 5-amino-4-oxo-3-(4-(trifluoromethoxy)phenyl)-3,4-dihydrothieno[3,4-d]pyridazine-1-carboxylate], the “Tau Cent. Assay % Soluble” value (K18PL tau [1]) was 29%, the inhibition at 80 µM (K18PL tau [2]) was 41% and the IC50 (K18PL tau [2]) was 2 µM.
With `Nc1scc2c(C(=O)O)nn(-c3ccc(OC(F)(F)F)cc3)c(=O)c12` [CNDR-51370, 5-Amino-4-oxo-3-(4-(trifluoromethoxy)phenyl)-3,4-dihydrothieno[3,4-d]pyridazine-1-carboxylic acid] the “Tau Cent. Assay % Soluble” value (K18PL tau [1]) was 65%, the inhibition at 80 µM (K18PL tau [2]) was 88% and the IC50 (K18PL tau [2]) was 6.31 µM.
With `CCOC(=O)c1nn(-c2ccc(C(F)(F)F)cc2)c(=O)c2c(N)scc12` [CNDR-51373, Ethyl 5-amino-4-oxo-3-(4-(trifluoromethyl)phenyl)-3,4-dihydrothieno[3,4-d]pyridazine-1-carboxylate] the “Tau Cent. Assay % Soluble” value (K18PL tau [1]) was 27%, the inhibition at 80 µM (K18PL tau [2]) was 48% and the IC50 (K18PL tau [2]) was 10 µM.
For `Nc1scc2c(C(=O)O)nn(-c3ccc(O)cc3)c(=O)c12` [CNDR-51374, 5-Amino-3-(4-hydroxyphenyl)-4-oxo-3,4-dihydrothieno[3,4-d]pyridazine-1-carboxylic acid], the “Tau Cent. Assay % Soluble” value (K18PL tau [1]) was 70%, the inhibition at 80 µM (K18PL tau [2]) was 84% and the “Tau ThT Assay Log IC50” value (K18PL tau [2]) was −5.4.
`CC(C)NC(=O)c1nn(-c2ccc(OC(F)(F)F)cc2)c(=O)c2c(N)scc12` [CNDR-51375, 5-Amino-N-isopropyl-4-oxo-3-(4-(trifluoromethoxy)phenyl)-3,4-dihydrothieno[3,4-c]pyridazine-1-carboxamide] was tested, and the “Tau Cent. Assay % Soluble” value (K18PL tau [1]) was 42% and the inhibition at 80 µM (K18PL tau [2]) was 67%.
With `CC(C)NC(=O)c1nn(-c2ccc(O)cc2)c(=O)c2c(N)scc12` [CNDR-51376, 5-Amino-3-(4-hydroxyphenyl)-N-isopropyl-4-oxo-3,4-dihydrothieno[3,4-d]pyridazine-1-carboxamide] the “Tau Cent. Assay % Soluble” value (K18PL tau [1]) was 84%, the inhibition at 80 µM (K18PL tau [2]) was 86% and the “Tau ThT Assay Log IC50” value (K18PL tau [2]) was −4.8.
`NNC(=O)c1nn(-c2ccc(Cl)cc2)c(=O)c2c(N)scc12` [CNDR-51378, 5-Amino-3-(4-chlorophenyl)-4-oxo-3,4-dihydrothieno[3,4-d]pyridazine-1-carbohydrazide] was tested, and the “Tau Cent. Assay % Soluble” value (K18PL tau [1]) was 77%, the inhibition at 80 µM (K18PL tau [2]) was 93% and the IC50 (K18PL tau [2]) was 3.16 µM.
With `CCOC(=O)c1nn(-c2cccc(Cl)c2)c(=O)c2c(N)scc12` [CNDR-51387] the “Tau Cent. Assay % Soluble” value (K18PL tau [1]) was 71%, the “Tau ThT Assay % Inhib.” value (K18PL tau [2]) was 90% and the “Tau ThT Assay Log IC50” value (K18PL tau [2]) was −5.7.
`Nc1scc2c(C(=O)O)nn(-c3cccc(Cl)c3)c(=O)c12` [CNDR-51388, 5-Amino-3-(3-chlorophenyl)-4-oxo-3,4-dihydrothieno[3,4-d]pyridazine-1-carboxylic acid] was tested, and the “Tau Cent. Assay % Soluble” value (K18PL tau [1]) was 71%, the inhibition at 80 µM (K18PL tau [2]) was 92% and the “Tau ThT Assay Log IC50” value (K18PL tau [2]) was −5.8.
With `Nc1scc2c(C(=O)O)nn(-c3ccc(Br)cc3)c(=O)c12` [CNDR-51389, 5-Amino-3-(4-bromophenyl)-4-oxo-3,4-dihydrothieno[3,4-d]pyridazine-1-carboxylic acid] the “Tau Cent. Assay % Soluble” value (K18PL tau [1]) was 78%, the inhibition at 80 µM (K18PL tau [2]) was 95% and the IC50 (K18PL tau [2]) was 3.16 µM.
In the case of `CC(C)NC(=O)c1nn(-c2cccc(Cl)c2)c(=O)c2c(N)scc12` [CNDR-51391, 5-Amino-3-(3-chlorophenyl)-N-isopropyl-4-oxo-3,4-dihydrothieno[3,4-d]pyridazine-1-carboxamide], the “Tau Cent. Assay % Soluble” value (K18PL tau [1]) is reported as 62%, the inhibition at 80 µM (K18PL tau [2]) is reported as 83% and the IC50 (K18PL tau [2]) is reported as 1.26 µM.
In the case of `CCOC(=O)c1nn(-c2ccc(Cl)cc2)c(=O)c2c(N)sc(Cl)c12` [CNDR-51393, Ethyl 5-amino-7-chloro-3-(4-chlorophenyl)-4-oxo-3,4-dihydrothieno[3,4-d]pyridazine-1-carboxylate], the “Tau Cent. Assay % Soluble” value (K18PL tau [1]) is reported as 65%, the inhibition at 80 µM (K18PL tau [2]) is reported as 88% and the “Tau ThT Assay Log IC50” value (K18PL tau [2]) is reported as −5.7.
In the case of `CCOC(=O)c1nn(-c2ccc(F)cc2)c(=O)c2c(N)scc12` [CNDR-51394, Ethyl 5-amino-3-(4-fluorophenyl)-4-oxo-3,4-dihydrothieno[3,4-d]pyridazine-1-carboxylate], the “Tau Cent. Assay % Soluble” value (K18PL tau [1]) is reported as 63%, the inhibition at 80 µM (K18PL tau [2]) is reported as 77% and the “Tau ThT Assay Log IC50” value (K18PL tau [2]) is reported as −6.0.
With `Nc1scc2c(C(=O)O)nn(-c3ccc(F)cc3)c(=O)c12` [CNDR-51395, 5-Amino-3-(4-fluorophenyl)-4-oxo-3,4-dihydrothieno[3,4-d]pyridazine-1-carboxylic acid] the “Tau Cent. Assay % Soluble” value (K18PL tau [1]) was 83%, the inhibition at 80 µM (K18PL tau [2]) was 84% and the “Tau ThT Assay Log IC50” value (K18PL tau [2]) was −5.7.
For `CC(C)NC(=O)c1nn(-c2ccc(F)cc2)c(=O)c2c(N)scc12` [CNDR-51396, 5-Amino-3-(4-fluorophenyl)-N-isopropyl-4-oxo-3,4-dihydrothieno[3,4-d]pyridazine-1-carboxamide], the “Tau Cent. Assay % Soluble” value (K18PL tau [1]) was 77%, the inhibition at 80 µM (K18PL tau [2]) was 89% and the “Tau ThT Assay Log IC50” value (K18PL tau [2]) was −5.8.
`Nc1scc2c(C(=O)NC3CC3)nn(-c3ccc(F)cc3)c(=O)c12` [CNDR-51397, 5-Amino-N-cyclopropyl-3-(4-fluorophenyl)-4-oxo-3,4-dihydrothieno[3,4-d]pyridazine-1-carboxamide] was tested, and the “Tau Cent. Assay % Soluble” value (K18PL tau [1]) was 78%, the inhibition at 80 µM (K18PL tau [2]) was 88% and the “Tau ThT Assay Log IC50” value (K18PL tau [2]) was −5.6.
With `Cc1nn(-c2ccc(Cl)cc2)c(=O)c2c(N)scc12` [CNDR-51400] the “Tau Cent. Assay % Soluble” value (K18PL tau [1]) was 90%, the “Tau ThT Assay % Inhib.” value (K18PL tau [2]) was 87% and the “Tau ThT Assay Log IC50” value (K18PL tau [2]) was −5.9.
For `CCOC(=O)c1nn(-c2ccc(I)cc2)c(=O)c2c(N)scc12` [CNDR-51404, Ethyl 5-amino-3-(4-iodophenyl)-4-oxo-3,4-dihydrothieno[3,4-d]pyridazine-1-carboxylate], the “Tau Cent. Assay % Soluble” value (K18PL tau [1]) was 63%, the inhibition at 80 µM (K18PL tau [2]) was 89% and the IC50 (K18PL tau [2]) was 2.51 µM.
In the case of `Nc1scc2c(-c3ccccc3)nn(-c3ccc(Cl)cc3)c(=O)c12` [CNDR-51405], the “Tau Cent. Assay % Soluble” value (K18PL tau [1]) is reported as 44%, the “Tau ThT Assay % Inhib.” value (K18PL tau [2]) is reported as 85% and the “Tau ThT Assay Log IC50” value (K18PL tau [2]) is reported as −6.0.
